Measured values published in patent US12090149B2, “SMAD3 inhibitors” (Moexa Pharmaceuticals Limited, priority 2018, dated 2024).
“And” between values parts separate entries of the source, which are not always exact repeats. Equal entries are not always repeated. “Also recorded” adds a separate entry of the source.

How the values were obtained:
[1] = tested on: B16-F10 syngeneic model; assay: Subcutaneous B16-F10 syngeneic model, tumor growth; type: in vivo, C57BL/6 mice
Protocol: In order to evaluate the in vivo efficacy of SIS3 and novel compounds of the present invention, a study has been conducted in treatment of the subcutaneous B16-F10 syngeneic models.
• Animal species and strain: C57BL/6 mice • History of treatment: Naive • Sex, age and weight: Female, 6-8 weeks • Breeder/supplier: Shanghai SLAC Laboratory Animal Co. Ltd • Adaptation: At least 7 days • Room: SPF Room • Room temperature: 20-26° C. • Room relative humidity: 40-70% • Light cycle: Fluorescent light for 12-hour light (08:00-20:00) and 12-hour dark • Animal hosting: 2-5 mice/cage each group • Food: Free access to food • Water: Free access to water (municipal tap water filtered by reverse osmosis or high-pressure sterilizer)
B16-F10 cell was maintained at 37° C. under 5% CO2 in DMEM medium supplemented with 10% FBS and were subsequently cultured within 10 passages before inoculated into the mice.
B16-F10 cells (3×10^5 in 100 μL of serum-free medium) were inoculated to each of C57BL/6 mice via s.c. under anesthesia by 3-4% isoflurane. Each group contains 15 mice.
When average tumor volume reached 35-60 mm^3, 15 mice were randomized into group 6. The day of inoculation was denoted as day 0.
Tumor dimensions were measured on Day 4, 5, 6, 8, 11, 13, 15 and 18, after inoculation in 2 dimensions with calipers.
When required, tumor volume was measured daily. The tumor volume (V) was calculated as follows: V=(length×width^2)/2.
The individual relative tumor volume (RTV) was calculated as follows: RTV=Vt/V0, where Vt was the volume on each day, and V0 was the volume at the beginning of the treatment.
Tumor growth inhibition (TGI), TGI=(1−(Ti−T0)/(Ci−C0))×100%; Ti and Ci as the mean tumor volumes of the treatment and control groups on the measurement day; T0 and C0 as the mean tumor volumes of the treatment and control groups on day 0
Results were expressed as mean±S.E.M. Comparisons between two groups were made by Dunnett's multi-comparison test, p<0.05 were considered as significant.

[2] = target: T1, CYP2D6 (Homo sapiens, UniProt P10635); assay: Cytochrome P450 inhibition assay, human liver microsomes, CYP2D6; type: in vitro ADME; conditions: probe dextromethorphan, dextromethorphan substrate, read-out: CYP2D6 inhibition (HLM, dextromethorphan substrate) Inhibition (%)
T1 construct: CONSTRUCT DETAILS: Microsomes; from tissue; host or cells: human liver microsomes
T1 sequence (P10635 whole entry): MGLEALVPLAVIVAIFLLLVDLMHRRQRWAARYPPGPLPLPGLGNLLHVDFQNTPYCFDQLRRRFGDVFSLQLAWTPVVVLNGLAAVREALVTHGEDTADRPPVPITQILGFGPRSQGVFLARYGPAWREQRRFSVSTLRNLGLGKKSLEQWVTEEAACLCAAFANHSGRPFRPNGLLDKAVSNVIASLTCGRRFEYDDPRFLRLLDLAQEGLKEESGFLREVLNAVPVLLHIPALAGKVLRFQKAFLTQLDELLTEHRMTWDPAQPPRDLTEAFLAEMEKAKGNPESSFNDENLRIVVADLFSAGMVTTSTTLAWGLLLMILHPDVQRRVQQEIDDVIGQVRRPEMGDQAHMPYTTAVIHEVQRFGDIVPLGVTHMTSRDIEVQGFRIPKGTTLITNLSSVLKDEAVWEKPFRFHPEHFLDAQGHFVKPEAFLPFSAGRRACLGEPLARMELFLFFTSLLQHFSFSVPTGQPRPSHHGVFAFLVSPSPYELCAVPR

[3] = target: T2, CYP2C9 (Homo sapiens, UniProt P11712); assay: Cytochrome P450 inhibition assay, human liver microsomes, CYP2C9; type: in vitro ADME; conditions: probe diclofenac, diclofenac substrate, read-out: CYP2C9 inhibition (HLM, diclofenac substrate) Inhibition (%)
T2 construct: CONSTRUCT DETAILS: Microsomes; from tissue; host or cells: human liver microsomes
T2 sequence (P11712 whole entry): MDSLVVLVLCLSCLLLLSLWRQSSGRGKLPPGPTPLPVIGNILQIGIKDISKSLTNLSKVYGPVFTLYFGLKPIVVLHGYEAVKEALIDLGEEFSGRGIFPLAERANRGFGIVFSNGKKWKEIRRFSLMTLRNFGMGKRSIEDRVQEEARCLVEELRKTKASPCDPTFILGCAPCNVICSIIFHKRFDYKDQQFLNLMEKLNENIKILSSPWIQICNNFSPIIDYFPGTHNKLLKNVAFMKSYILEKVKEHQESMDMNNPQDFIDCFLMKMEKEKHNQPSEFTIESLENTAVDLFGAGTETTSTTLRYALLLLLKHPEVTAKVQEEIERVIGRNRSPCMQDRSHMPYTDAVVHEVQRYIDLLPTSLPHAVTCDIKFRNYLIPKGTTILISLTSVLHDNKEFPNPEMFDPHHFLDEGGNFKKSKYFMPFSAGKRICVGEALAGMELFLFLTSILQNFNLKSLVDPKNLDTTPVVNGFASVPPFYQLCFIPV
Source text: • SUBSTRATE: Diclofenac

[4] = Aqueous solubility assay (shake-flask, LC/MS/MS); type: physicochemical
[5] = tested on: B16-F10 syngeneic model; assay: Subcutaneous B16-F10 syngeneic model, tumor growth; type: in vivo, C57BL/6 mice; conditions: 30 mg/kg q.d. * 3W i.p.
[6] = single agent, i.p. QD*3 weeks, SIS3 10 and 30 mg/kg, MO-00005 10, 30 and 100 mg/kg, vs vehicle

For `COc1cc2c(cc1OC)CN(C(=O)/C=C/c1c(-c3ccccc3)nc3ccccn13)CC2` [Compound 8, (E)-1-(6,7-dimethoxy-3,4-dihydroisoquinolin-2(1H)-yl)-3-(2-phenylimidazo[1,2-a]pyridin-3-yl)prop-2-en-1-one], the “Relative tumor volume Mean” value ([1]; 30 mg/kg q.d. * 3W i.p., Day 8, RTV=Vt/V0) was 1.00, the “Relative tumor volume Mean” value ([1]; 30 mg/kg q.d. * 3W i.p., Day 11, RTV=Vt/V0) was 3.76 and the “Tumor growth inhibition (%) TGI” value ([1]; 30 mg/kg q.d. * 3W i.p., Day 11, calculated based on tumor volume of Day 8) was 26%. For the same compound, the “Tumor Sizes (mm3) Mean” value ([1]; 30 mg/kg q.d. * 3W i.p., Day 11, listed as MO-00005) was 165.30 mm3 and 165.3 mm3, the “Tumor Sizes (mm3) Mean” value ([1]; 30 mg/kg q.d. * 3W i.p., Day 13) was 376.62 mm3 and the “Relative tumor volume Mean” value ([1]; 30 mg/kg q.d. * 3W i.p., Day 13, RTV=Vt/V0) was 10.44. The “Tumor Sizes (mm3) Mean” value ([1]; 30 mg/kg q.d. * 3W i.p., Day 15) was 794.11 mm3, the “Relative tumor volume Mean” value ([1]; 30 mg/kg q.d. * 3W i.p., Day 15, RTV=Vt/V0) was 21.61 and the “Tumor Sizes (mm3) Mean” value ([1]; 30 mg/kg q.d. * 3W i.p., Day 18) was 2303.09 mm3. For the same compound, the “Relative tumor volume Mean” value ([1]; 30 mg/kg q.d. * 3W i.p., Day 18, RTV=Vt/V0) was 63.87, the “Relative tumor volume Mean” value ([1]; 100 mg/kg q.d. * 3W i.p. (group 6), Day 8, RTV=Vt/V0) was 1.00 and the “Relative tumor volume Mean” value ([1]; 100 mg/kg q.d. * 3W i.p. (group 6), Day 11, RTV=Vt/V0) was 3.70. The “Tumor growth inhibition (%) TGI” value ([1]; 100 mg/kg q.d. * 3W i.p. (group 6), Day 11, calculated based on tumor volume of Day 8) was 29%, the “Tumor Sizes (mm3) Mean” value ([1]; 100 mg/kg q.d. * 3W i.p. (group 6), Day 11, listed as MO-00005) was 155.10 mm3 and 155.1 mm3 and the “Tumor Sizes (mm3) Mean” value ([1]; 100 mg/kg q.d. * 3W i.p. (group 6), Day 13) was 335.85 mm3. For the same compound, the “Relative tumor volume Mean” value ([1]; 100 mg/kg q.d. * 3W i.p. (group 6), Day 13, RTV=Vt/V0) was 7.98, the “Tumor growth inhibition (%) TGI” value ([1]; 100 mg/kg q.d. * 3W i.p. (group 6), Day 13, calculated based on tumor volume of Day 8) was 46% and the “Tumor Sizes (mm3) Mean” value ([1]; 100 mg/kg q.d. * 3W i.p. (group 6), Day 15) was 724.03 mm3. The “Relative tumor volume Mean” value ([1]; 100 mg/kg q.d. * 3W i.p. (group 6), Day 15, RTV=Vt/V0) was 17.31, the “Tumor growth inhibition (%) TGI” value ([1]; 100 mg/kg q.d. * 3W i.p. (group 6), Day 15, calculated based on tumor volume of Day 8) was 32% and the “Tumor Sizes (mm3) Mean” value ([1]; 100 mg/kg q.d. * 3W i.p. (group 6), Day 18) was 2107.22 mm3. The “Relative tumor volume Mean” value ([1]; 100 mg/kg q.d. * 3W i.p. (group 6), Day 18, RTV=Vt/V0) was 50.47, the “Tumor growth inhibition (%) TGI” value ([1]; 100 mg/kg q.d. * 3W i.p. (group 6), Day 18, calculated based on tumor volume of Day 8) was 25% and the “Tumor Sizes (mm3) Mean” value ([1]; 100 mg/kg q.d. * 3W i.p. (group 6, randomized at tumor volume 35-60 mm^3), Day 8) was 42.19 mm3. The “reduction of tumor weight compared to the control group” value ([1]; high dose group, after 18 days of the experiment) was about 50%, the “anti-tumor activity against the B16-F10 syngeneic model (in words)” value [1, 6] was “anti-tumor response; also recorded: significant anti-tumor activity; also recorded: inhibits the growth of cancer” and the “efficacy on tumor weight (in words)” value [1, 6] was “significant efficacy on tumor weight”. The inhibition at 10 µM [2] was -2.74%, the inhibition at 10 µM [3] was 66.9% and the solubility at 24 h ([4]; aqueous buffer pH 10.63, aqueous buffer, thermodynamic from solid, pH 10.63 buffer, 25° C., 24 hours, SIS3 hydrochloride salt, MO-00005 free base, read-out: Conc. Of Sample (ug/mL), aqueous solubility) was 280 µg/mL. The “aqueous solubility relative to the solubility of SIS3” value ([4]; pH 10.63) was 117 times, the “Tumor growth inhibition (%) TGI” value ([5]; Day 13, calculated based on tumor volume of Day 8) was 39% and the “Tumor growth inhibition (%) TGI” value ([5]; Day 15, calculated based on tumor volume of Day 8) was 26%. For the same compound, the “Tumor growth inhibition (%) TGI” value ([5]; Day 18, calculated based on tumor volume of Day 8) was 18%.
